Assay results: US9561201B2, “Therapeutic compounds” (Fibrotech Therapeutics Pty Ltd, priority 2006, dated 2017)
Blank lines part the entries; values can stand above or below the compound they belong to.

Key:
[1] = tested on: rat mesangial cell line; experiment: Effect on mesangial cell appearance (visual monitoring during proline assay); format: cell-based
Experimental: (§1) A well-characterized cloned rat mesangial cell line (gift of D Nikolic-Patterson) is cultured in DMEM with FBS, 100 U/mL penicillin, and 100 ug/mL streptomycin in a humidified 5% CO2 atmosphere at 37° C. Cells are plated into 24-well culture dishes in DMEM/10% FBS at low density and allowed to adhere overnight. Cells are used between passages 20 and 40. The subconfluent cells are starved overnight in DMEM/0.1% FBS containing 150 uM L-ascorbic acid, prior to 4 hours of pre-treatment with or without tranilast or the FT compounds, followed by the addition of 5 ng/mL rhTGF-β11 (R&D Systems) and 1 uCi/mL of L-(2,3,4,5-^3H)-proline. Control wells have the compounds but no TGF-β1 added. Cells are incubated for a further 44 hours during which time their appearance is visually monitored. The cells are then washed three times in ice-cold PBS, twice in ice cold 10% TCA and solubilized in 750 uL 1M NaOH for 45 minutes at 37° C. or overnight at 4° C. A 500 uL aliquot is neutralized with 500 uL 1M HCl and 10 mL scintillation fluid (Instagel Plus-Perkin-Elmer) added. Counts are performed on a beta counter.
Compounds in Bold have Minimal Effect on Cell Appearance and Viability

[2] = tested on: rat mesangial cell line; experiment: TGF-β stimulated 3H-proline incorporation in mesangial cells (Example 5); format: cell-based; details: for inhibition at 1 µM / inhibition at 3 µM / inhibition at 10 µM / inhibition at 30 µM: Rattus norvegicus, Mesangial cell, 5 ng/mL TGF-β1, 44 h, read-out: Mesangial Cell Assay TGF-β % reduction of TGF-β stimulation_proline inc.; for Collagen synthesis: inhibition ranked against tranilast (T) or FT11
Experimental: as §1
To normalize the proline incorporation counts to take into account the proliferative effects of TGF-β1, a BioRad protein assay is performed on a 100-150 uL aliquot of the remaining solubilized cells. The sample is neutralized with an equal amount of 1M HCl prior to the assay. The BSA standards used to construct the standard curve have the same amount of 1M NaOH and 1M HCl added as is present in the samples for assay.
Proline incorporation is expressed as cpm/ug protein. In order to compare inter-assay results, the incorporation is expressed as percentage reduction of TGF stimulated proline incorporation, where TGF alone gives 0% reduction and the zero control gives 100% reduction.

[3] = tested on: Neonatal rat cardiac fibroblasts (NCFs); experiment: NCF TGF-β collagen synthesis, 3H-proline incorporation (Example 6); format: cell-based
Experimental: Neonatal SD rat cardiac myocytes (NCMs) and fibroblasts (NCFs) were isolated from one-day-old pups with enzymatic digestion as described in detail previously. NCFs were seeded and maintained in high-glucose (25 mmol/L) Dulbecco's modified Eagle's medium (DMEM) (Invitrogen Mount Waverley, Vic, Australia) in the presence of 1% antibiotic/antimycotic (AB/AM) and 10% fetal bovine serum (FBS) (JRH biosciences, Kansas, USA). NCFs were used at passage 2 [31]. Purified NCMs were seeded (1000 cells/mm^2) in 6-well plates and then maintained in serum-free DMEM (Invitrogen, NY, USA) supplemented with insulin and transferrin as described previously (4). Bromodeoxyuridine was included for the first 3 days. 50 mmol/L KCl was added to the medium to prevent spontaneous contraction characteristic of the plated NCMs.
NCFs collagen synthesis assays were performed as described previously. Briefly, NCFs plated at a density of 50,000 cells/well in 12-well plate and incubated overnight. NCFs were then serum starved for 24 hours in high-glucose DMEM. […]
For collagen synthesis, 1 μCi of [^3H]-Proline was added to each well and incubated for further 48 hours before harvest. Cells were harvested by precipitation with 10% TCA on ice for 30 min, before solubilisation with 0.75 mL of 1 mol/L NaOH overnight at 4° C. The samples were then neutralized with 1 mol/L HCl and ^3H level were counted with 10 ml scintillation fluid on a beta-counter to determine [^3H]-proline incorporation.

[4] = tested on: Mesangial cells; experiment: Mesangial cell MTT assay with TGF-β; format: cell-based, rat; details: @ 30 μM; suppressed = reduced cell viability
Experimental: Mesangial cells are plated at 15000 cells per well into 96-well culture dishes in DMEM/10% FBS and allowed to adhere overnight. The subconfluent cells are starved overnight in DMEM/0.1% FBS, prior to 4 hours of pre-treatment with or without tranilast or the FT compounds. Following the addition of 5 ng/mL rhTGF-β1, the cells are incubated in a humidified 5% CO2 atmosphere at 37° C. for 44 hours. Control wells have the compounds but no TGF-β1 added. The culture medium is removed from each well and 100 uL MTT (0.5 mg/mL) in starve medium is added to each well. The plates are incubated for a further 4 hours at 37° C. The culture medium is then removed and replaced with 100 μL isopropanol and incubated at 37° C. for 20 to 30 minutes, until the blue formazan crystals have dissolved. The absorbance is measured at a wavelength of 570 nm with background subtraction of 690 nm.
Suppressed MTT Result Indicates Reduced Cell Viability

[5] = patients with Gilbert's syndrome UGT1A1 variant [19]; cited from earlier work
[6] = tested on: mesangial cell line (1097); experiment: TGF-β induced 3H-proline incorporation in cultured rat mesangial cells (Example 2); format: cell-based, Sprague-Dawley rats; details: renal mesangial cells, from 30 to 100 μM
Experimental: The anti-fibrotic effects of 3-methoxy-4-propargyloxybenzaldehyde (FT011) in a renal cell line were tested by measuring proline incorporation after transforming growth factor-β stimulation.
A well-characterized cloned mesangial cell line (1097) isolated from Sprague-Dawley rats was used between passages 30 and 40. Cells were cultured in Dulbecco's Modified Eagle's (DME) medium (Invitrogen, Grand Island, N.Y.) with heat-inactivated fetal bovine serum (FBS), 100 u/mL penicillin and 100 ug/mL streptomycin in a humidified 5% CO2 atmosphere at 37° C.
To compare the effects of tranilast and FT011 on collagen production in vitro, incorporation of tritiated proline was used. Mesangial cells were plated at low density into 24-well culture plates in DME/5% FBS and allowed to adhere overnight. The subconfluent cells were starved overnight in DME/0.5% FBS and […] L-ascorbic acid (Sigma-Aldrich). Tranilast or FT011 was then added to the wells, followed 4 hours later by L-[2,3,4,5-^3H]-proline, 0.5 μCi/well (Amersham) and TGF-β1, 5 ng/ml (R & D systems). Mesangial cells were harvested 48 hours post-stimulation, washed three times with ice cold PBS, and incubated with 10% trichloroacetic acid (TCA) for 30 minutes on ice, followed by a wash in ice cold 10% TCA. Cells were then solubilised in […] 1M NaOH. […]

[7] = Pilot study (toxicity assessment), 2 weeks oral gavage; format: in vivo, Sprague-Dawley (SD) rats; details: 2 weeks
Experimental: A total of twenty male Sprague-Dawley (SD) rats weighing 200-250 g were randomised to either FT011 (Fibrotech Therapeutics Pty Ltd, Melbourne, Australia) or Tranilast (Pharm Chemical, Shanghai Lansheng Corporation, China) at the dose of 50 mg, 100 mg, 200 mg and 400 mg/kg/day by gavage twice daily (n=2-3 per group). A control group of animals were gavaged with vehicle (1% carboxy methyl cellulose). The study was conducted for 2 weeks. Animals were bled daily at one, four, and eight hours after oral gavage to measure the plasma concentration. Serum was also collected to assess renal and liver function at the end of the study (plasma creatine and urate, ALT and bilirubin). Rats were individually housed in metabolic cages at the end of the study, habituated for 2 to 3 hours, and urine collected over 24 hours. Animals continued to have free access to tap water and standard laboratory chow during this period. The biochemistry tests performed at the department of pathology, St Vincent's hospital. Major organs including lung, heart, liver, spleen and kidney were harvested and immersed fix with 10% neutral buffered formalin and then embedded paraffin for subsequent light microscope examination.

[8] = tested on: cardiac fibroblasts; details: experimental model of diabetic cardiac disease [15]; cited from earlier work

Effect on mesangial cell appearance ([1]; @ 30 μM): sparse
Effect on mesangial cell appearance ([1]; @ 100 μM): lifting off
melting point: 96 to 98 °C
SMILES: COc1cc(/C=C/C(=O)Nc2ccccc2C(=O)O)ccc1OC1CCCC1 [Analogue 26, (E)-2-{[3-(4-Cyclopentyloxy-3-methoxyphenyl)-1-oxo-2-propenyl]amino}benzoic acid]
inhibition at 1 µM [2]: ~13%
inhibition at 3 µM [2]: 30%
inhibition at 10 µM [2]: 85%
inhibition at 30 µM [2]: 93%
Collagen synthesis [2]: >FT11
NCF TGF-β Collagen Synthesis ([3]; @ 10 μM): 28% at

SMILES: C#CCOc1cc(/C=C/C(=O)Nc2ccccc2C(=O)O)ccc1OC [Analogue 17, (E)-2-[[3-(4-Methoxy-3-propargyloxyphenyl)-1-oxo-2-propenyl]amino]benzoic acid]
inhibition at 10 µM [2]: 20 to 50%
inhibition at 30 µM [2]: ~55%
Collagen synthesis [2]: >=FT11
NCF TGF-β Collagen Synthesis ([3]; @ 30 μM): ~70% at

Effect on mesangial cell appearance ([1]; @ 10 μM): Sparse @
Effect on mesangial cell appearance ([1]; @ 100 μM): Stressed @
melting point: 211 to 217 °C
SMILES: COc1ccc(/C=C/C(=O)Nc2ccccc2C(=O)O)cc1OC1CCCC1 [Analogue 29, (E)-2-{[3-(3-Cyclopentyloxy-4-methoxyphenyl)-1-oxo-2-propenyl]amino}benzoic acid]
Mesangial cell MTT Assay TGF-β [4]: Suppressed
inhibition at 1 µM [2]: ~8%
inhibition at 3 µM [2]: 40%
inhibition at 10 µM [2]: ~90%
Collagen synthesis [2]: >FT11
NCF TGF-β Collagen Synthesis ([3]; @ 10 μM): 10% @ 10 μM
NCF TGF-β Collagen Synthesis ([3]; @ 30 μM): 25% @ 30 μM

SMILES: COc1ccc(/C=C/C(=O)Nc2ccccc2C(=O)O)cc1OC [Analogue 1, (E)-2-[[3-(3,4-Dimethoxyphenyl)-1-oxo-2-propenyl]amino]benzoic acid, reference compound]
drug-induced adverse effect [5]: hyperbilirubinemia
proline incorporation after TGF-β stimulation [6]: significantly reduce
ALT ([7]; 50 mg/kg/day gavage): 40.5 ± 4.5
Body weight ([7]; 50 mg/kg/day gavage): 315 ± 19 Gram
Plasma Creatinine ([7]; 50 mg/kg/day gavage): 43 ± 0.5 µmol/L
Plasma Urate ([7]; 50 mg/kg/day gavage): <0.09 mmol/L
ALT ([7]; 100 mg/kg/day gavage): 41 ± 1
Body weight ([7]; 100 mg/kg/day gavage): 298 ± 21 Gram
Plasma Creatinine ([7]; 100 mg/kg/day gavage): 43 ± 3.5 µmol/L
Plasma Urate ([7]; 100 mg/kg/day gavage): <0.09 mmol/L
ALT ([7]; 200 mg/kg/day gavage): 41 ± 4.6
Body weight ([7]; 200 mg/kg/day gavage): 293 ± 10 Gram
Plasma Creatinine ([7]; 200 mg/kg/day gavage): 45 ± 1 µmol/L
Plasma Urate ([7]; 200 mg/kg/day gavage): <0.09 mmol/L
ALT ([7]; 400 mg/kg/day gavage): 40 ± 5
Body weight ([7]; 400 mg/kg/day gavage): 314 ± 13 Gram
Plasma Creatinine ([7]; 400 mg/kg/day gavage): 49 ± 7.8 µmol/L
Plasma Urate ([7]; 400 mg/kg/day gavage): <0.09 mmol/L
TGF-β-induced collagen synthesis in cardiac fibroblasts [8]: attenuate
